Laboratory results from patent publication US20110300132A1, “4-AMINOQUINAZOLINE PRODRUGS” (Concert Pharmaceuticals, Inc., priority 2008, published 2011).
Values after ≈ are worked out from the molar mass of the structure shown. Like-named read-outs stand apart in the source and are kept apart here.

Tests used:
[1] = Evaluation of aqueous solubility in different aqueous buffers (HPLC quantification); format: physicochemical; details: thermodynamic from solid, equilibrated at 25° C. for 24 hours
Method: Aqueous solubility of the compounds of this invention was determined by suspending sufficient compound in different aqueous buffers to give a maximum final concentration of ≧10 mg/mL of the compound. The resulting suspension was equilibrated at 25° C. for 24 hours then the pH is measured. The suspension was then filtered through a glass fibre C filter into a 96 well plate. The filtrate was diluted by a factor of 10. Quantification was by HPLC with reference to a standard solution in DMSO. Different volumes of the standard, diluted and undiluted sample solutions were injected. The solubility was calculated using the peak areas determined by integration of the peak found at the same retention time as the principal peak in the standard injection.

[2] = as reported on FDA approved label, cited from earlier work
[3] = Buffer: FaSSIF (fasted state simulated intestinal fluid), final pH 6.61 (103), 6.58 (101)

Row | Structure (SMILES) | solubility at 24 h [1, 3] [µg/mL] | solubility at 24 h ([1]; aqueous buffer, Buffer: Phosphate pH 6.3, final pH 6.45) [µg/mL] | solubility at 24 h ([1]; aqueous buffer, Buffer: Phosphate pH 6.8, final pH 7.03) [µg/mL] | solubility at 24 h ([1]; aqueous buffer, Buffer: Phosphate pH 7.3, final pH 7.41) [µg/mL] | Solubility ([2]; 0.1N HCl) [µg/mL] | Solubility ([2]; Water) [µg/mL]
1 | CS(=O)(=O)CCN(Cc1ccc(-c2ccc3ncnc(Nc4ccc(OCc5cccc(F)c5)c(Cl)c4)c3c2)o1)C(=O)OCOP(=O)(O)O [Compound 101, Phosphonooxymethyl (5-(4-(3-chloro-4-(3-fluorobenzyloxy)phenylamino)quinazolin-6-yl)furan-2-yl)methyl(2-(methylsulfonyl)ethyl)carbamate] | 25 (≈ 34 µM) |  |  |  |  | 
2 | CS(=O)(=O)CCN(Cc1ccc(-c2ccc3ncnc(Nc4ccc(OCc5cccc(F)c5)c(Cl)c4)c3c2)o1)C(=O)OCOP(=O)([O-])[O-].[Na+].[Na+] [Compound 103, Sodium (((5-(4-(3-Chloro-4-(3-fluorobenzyloxy)phenylamino)quinazolin-6-yl)furan-2-yl)methyl)(2-(methylsulfonyl)ethyl)carbamoyloxy)methyl phosphate] | 9100 | 170 | 520 | 4600 |  | 
3 | CS(=O)(=O)CCNCc1ccc(-c2ccc3ncnc(Nc4ccc(OCc5cccc(F)c5)c(Cl)c4)c3c2)o1.Cc1ccc(S(=O)(=O)O)cc1.Cc1ccc(S(=O)(=O)O)cc1.O [Lapatinib ditosylate, N-[3-Chloro-4-(3-fluorobenzyloxy)phenyl]-6-[5-[2-(methylsulfonyl)ethylaminomethyl]furan-2-yl]quinazolin-4-amine bis(4-methylbenzenesulfonate) hydrate] |  |  |  |  | 1 | 7
